Assay results as given in patent publication US9376506B2, “Method for producing sialic-acid-containing sugar chain” (GLYTECH, INC., priority 2011, dated 2016).
Read-outs that look alike come from different tables or passages of the source.

What was measured:
ST6Gal-I = molecular target: T1, ST6Gal-I (Homo sapiens, UniProt P15907); conditions: 0.25 mM CMP, cited from earlier work
T1 sequence (P15907 1-406): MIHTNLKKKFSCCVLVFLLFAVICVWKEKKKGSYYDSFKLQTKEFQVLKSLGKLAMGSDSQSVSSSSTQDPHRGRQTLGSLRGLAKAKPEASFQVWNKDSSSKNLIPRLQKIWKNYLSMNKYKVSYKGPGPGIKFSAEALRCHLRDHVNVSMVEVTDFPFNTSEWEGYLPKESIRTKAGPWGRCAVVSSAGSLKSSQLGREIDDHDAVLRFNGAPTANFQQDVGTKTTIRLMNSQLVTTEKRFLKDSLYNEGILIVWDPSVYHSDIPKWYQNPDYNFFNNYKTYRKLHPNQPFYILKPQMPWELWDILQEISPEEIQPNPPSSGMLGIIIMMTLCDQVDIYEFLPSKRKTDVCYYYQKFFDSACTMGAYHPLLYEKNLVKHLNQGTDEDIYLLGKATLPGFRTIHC

[1] = Stability of CMP-Neu5Ac (CMP formation, HPLC); assay type: physicochemical; conditions: 5 mM CMP-Neu5Ac/0.1 M MOPS (pH 7.3), after 24 hours
Protocol: In order to confirm whether CMP was formed by the degradation of the substrate donor CMP-Neu5Ac, 5 mM CMP-Neu5Ac/0.1 M MOPS (pH 7.3) was incubated at 25° C., 30° C., 33° C., or 37° C., and the amount of CMP formed was measured. The measurement was performed by HPLC using a column TSKgel SuperQ-5PW (7.5×75 mm; Tosoh Corp.) and 50 mM KPi (pH 8.0) as a solvent. A UV detector (detection wavelength: 254 nm) was used for the detection. The degree of CMP formation was indicated by [Peak area of CMP]/[Peak area of CMP+Peak area of CMP-Neu5Ac]×100(%). After 24 hours, 45% CMP was formed at 37° C., whereas 21% CMP was formed at 30° C., which was about half of that formed at 37° C.

Row | SMILES | product inhibition of ST6Gal-I by CMP (ST6Gal-I; Non Patent Literature 5) | product inhibition of ST6Gal-I by CMP (ST6Gal-I; Non Patent Literature 6) | CMP formed, [Peak area of CMP]/[Peak area of CMP+Peak area of CMP-Neu5Ac]×100 ([1]; 30° C.) | CMP formed, [Peak area of CMP]/[Peak area of CMP+Peak area of CMP-Neu5Ac]×100 ([1]; 37° C.)
1 | Nc1ccn([C@@H]2O[C@H](COP(=O)(O)O)[C@@H](O)[C@H]2O)c(=O)n1 [CMP, cytidine monophosphate] | 49% | 71% | – | –
2 | CC(=O)N[C@H]1[C@H]([C@H](O)[C@H](O)CO)O[C@](OP(=O)(O)OC[C@H]2O[C@@H](n3ccc(N)nc3=O)[C@H](O)[C@@H]2O)(C(=O)O)C[C@@H]1O [CMP-Neu5Ac, CMP-N-acetylneuraminic acid] | – | – | 21% | 45%
